Results from US5624935A, “Heterocyclic compounds having anti-diabetic activity and their use” (Sankyo Company, Limited, priority 1994, dated 1997).

Key:
blood glucose level = assay: Hypoglycemic activity in hyperglycemic KK mice; format: in vivo, hyperglycemic male mice of the KK strain; details: Mus musculus, oral, 18 hours, vs solvent-only group, read-out: Hypoglycemic effect
Procedure: The test animals used were hyperglycemic male mice of the KK strain, each having a body weight of at least 40 g. The compounds under test were mixed with a 1:1 by volume mixture of polyethylene glycol 400 and water. Each animal was orally administered a test compound in the amount shown in the following Table 6 and then allowed to feed freely for 18 hours. At the end of this time, blood was collected from the tail veins without anesthesia. The blood glucose level (BGL) was determined by means of a glucose analyzer (GL-101, manufactured by Mitsubishi Kasei Co. or a Glucoroder-F manufactured by Shino Test Co.).
The hypoglycemic effect was calculated by the following equation: [formula] where: BGLs is the blood glucose level in the group administered a solvent only, but no active compound; and
BGLt is the blood glucose level in the group administered a test compound.
The results are shown in the following Table 6, in which each compound of the present invention is identified by the number of one of the following Examples in which its preparation is illustrated.

[1] = target: T1, Bovine lens aldose reductase (Bos taurus, UniProt P16116); assay: Inhibition of Aldose reductase; format: biochemical; details: for inhibition at 5 µg/mL: read-out: Inhibition at 5 μg/ml
T1 construct: Bovine lens aldose reductase was separated and partially purified; from tissue; host or cells: bovine lens
Procedure: Bovine lens aldose reductase was separated and partially purified by the method of S. Hyman and J. H. Kinoshita [J. Biol. Chem., 240, 877 (1965)] and K. Inagaki, I. Miwa and J. Okuda [Arch. Biochem. Biophys., 316, 337 (1982)], and its activity was determined photometrically by the method of Varma et al. [Biochem. Pharmac., 25, 2505 (1976)]. Inhibition of enzyme activity was measured for the compounds of the present invention at a concentration of 5 μg/ml, and the measured values were used to calculate the IC50 values.

male F344 rats = assay: Toxicity, 2 weeks oral in rats; format: in vivo; details: for mortality rate: oral, 50 mg/kg per day, 2 weeks, male F344 rats; for abnormalities which could be attributed to the test compounds: rat, in vivo, po, 50 mg/kg/day
Procedure: The toxicity of the compounds of the present invention was tested on male F344 rats, divided into groups of 5. The test compound was adminstered orally to each test animal at a dose of 50 mg/kg of body weight per day for 2 weeks. The test compounds used were those of Examples 7 and 17 .

| SMILES | inhibition in vivo at 10 mg/kg (blood glucose level) [%] | inhibition at 5 µg/mL [1] [%] | inhibition in vivo at 1 mg/kg (blood glucose level) [%] | IC50 [1] [µM] | mortality rate (male F344 rats) | abnormalities which could be attributed to the test compounds (male F344 rats) |
| --- | --- | --- | --- | --- | --- | --- |
| O=C1NC(=O)C(Cc2ccc(OCC3Cc4ccccc4N3)cc2)S1 (stereo not drawn) [Example 1, 5-[4-(Indolin-2-ylmethoxy)benzyl]thiazolidine-2,4-dione] | 13.2 | 54.5 |  |  |  |  |
| CN1c2ccccc2CC1COc1ccc(CC2SC(=O)NC2=O)cc1 (stereo not drawn) [Example 2, 5-[4-(1-Methylidolin-2-ylmethoxy)benzyl]thiazolidine-2,4-dione] |  | 58.1 | 27.7 | 8.68 |  |  |
| O=C1NC(=O)C(Cc2ccc(OCCN3CCc4ccccc43)cc2)S1 (stereo not drawn) [Example 3, 5-{4-[2-(Indolin-1-yl)ethoxyl]benzyl}thiazolidine-2,4-dione] | 27 |  |  | 10 |  |  |
| O=C1NC(=O)C(Cc2ccc(OCCc3c[nH]c4ccccc34)cc2)S1 (stereo not drawn) [Example 4, 5-{4-[2-(Indol-3-yl)ethoxy]benzyl}thiazolidine-2.4dione] |  |  |  | 6.28 |  |  |
| O=C1NC(=O)C(Cc2ccc(OCCn3cc(C(c4ccccc4)(c4ccccc4)c4ccccc4)c4ccccc43)cc2)S1 (stereo not drawn) [Example 5, 5-{4-[2-(3-Triphenylmethylindol-1-yl)ethoxyl]-benzyl}thiazolidine-2,4-dione] | 16.2 |  |  |  |  |  |
| O=C1NC(=O)C(Cc2ccc(OCCn3ccc4ccccc43)cc2)S1 (stereo not drawn) [Example 6, 5-{4-[2-(Indol-1-yl)ethoxy]benzyl}thiazolidine-1-dione] | 20.9 | 47 |  |  |  |  |
| Cn1c(COc2ccc(CC3SC(=O)NC3=O)cc2)nc2cccnc21 (stereo not drawn) [Example 7, 5-{4-(3-Methyl-3H-imidazo[4,5-b]pyridin-2-methoxyl)-benzyl}thiazolidine-2,4-dione] |  |  | 24.7 | 2.71 | zero | no abnormalities |
| O=C1NC(=O)C(Cc2ccc(OCc3cn4ccccc4n3)cc2)S1 (stereo not drawn) [Example 9, 5-{4-(Imidazo[1,2-a]pyridin-2-ylmethoxy)benzyl}-thiazolidine2,4-dione] | 27.6 | 53.3 |  |  |  |  |
| Cn1c(COc2ccc(CC3SC(=O)NC3=O)cc2)cc2ccccc21 (stereo not drawn) [Example 10, 5-[4-(1-Methylindol-2-ylmethoxy)benzyl]thiazolidine-2,4-dione] |  |  | 11.6 |  |  |  |
| CCn1c(COc2ccc(CC3SC(=O)NC3=O)cc2)nc2cccnc21 (stereo not drawn) [Example 12, 5-{4-(3-Ethyl-3H-imidazo[4,5-b]pyridin-2-ylmethoxy)-benzyl}thiazolidine-2,4-dione] |  |  |  | 4.45 |  |  |
| Cn1c(COc2ccc(CC3SC(=O)NC3=O)cc2)nc2ncccc21 (stereo not drawn) [Example 13] |  |  | 34 | 7.06 |  |  |
| Cn1c(CCCOc2ccc(CC3SC(=O)NC3=O)cc2)nc2cccnc21 (stereo not drawn) [Example 14, 5-[4-{3-(3-Methyl-3H-imidazo[4,5-b]pyridin-2-yl)-propoxy}-benzyl]thiazolidine-2,4-dione] |  | 53.9 |  |  |  |  |
| O=C1NC(=O)C(Cc2ccc(OCc3nc4ncccc4[nH]3)cc2)S1 (stereo not drawn) [Example 15, 5-{4-(1H-Imidazo[4,5-b]pyridin-2-ylmethoxy)benzyl}-thiazolidine-2,4-dione] |  |  | 13.8 | 6.77 |  |  |
| Cc1ccnc2c1nc(COc1ccc(CC3SC(=O)NC3=O)cc1)n2C (stereo not drawn) [Example 16, 5-{4-(3,7-Dimethyl-3H-imidazo[4,5-b]pyridin-2-ylmethoxy)benzyl}thiazolidine-2,4-dione] |  | 59.1 |  | 9.67 |  |  |
| Cn1c(COc2ccc(CC3SC(=O)NC3=O)cc2)nc2ccc(Cl)nc21 (stereo not drawn) [Example 17, 5-{4-(5-Chloro-3-methyl-3H-imidazo[4,5-b]pyridin-2-ylmethoxy)benzyl}thiazolidine-2,4-dione] |  |  | 37.1 | 4.47 | zero | no abnormalities |
| Cn1c(COc2ccc(CC3SC(=O)NC3=O)cc2)nc2cc(C(F)(F)F)cnc21 (stereo not drawn) [Example 18, 5-{4-(3-Methyl-6-trifluoromethyl-3H-imidazo[4,5-b]pyridin-2-ylmethoxy)benzyl}thiazolidine-2,4-dione] |  | 76.3 |  | 2.02 |  |  |
| O=C1NC(=O)C(Cc2ccc(OCc3nc4cccnc4n3Cc3ccc(Cl)cc3)cc2)S1 (stereo not drawn) [Example 20, 5-(4-{3-(4-Chlorobenzyl)-3H-imidazo[4,5-b]pyridin-2-ylmethoxyl}benzyl)thiazolidine-2,4-dione] |  | 61.6 | 24.5 | 3.76 |  |  |
| Cn1c(COc2ccc(CC3SC(=O)NC3=O)cc2)nc2cc(Br)cnc21 (stereo not drawn) [Example 22, 5-{4-(6-Bromo-3-methyl-3H-imidazo[4,5-b]pyridin-2-ylmethoxy)benzyl}thiazolidine-2,4-dione] |  | 77.2 | 10.2 | 4.02 |  |  |
| Cn1c(COc2ccc(CC3SC(=O)NC3=O)cc2)nc2cc(Cl)cnc21 (stereo not drawn) [Example 23, 5-{4-(6-Chloro-3-methyl-3H-imidazo[4,5-b]pyridin-2-ylmethoxy)benzyl}thiazolidine-2,4-dione] |  | 94.9 | 21.7 | 3.23 |  |  |
| Cn1c(COc2ccc(CC3SC(=O)NC3=O)cc2)nc2cnccc21 (stereo not drawn) [Example 25] |  | 81.6 |  | 2.42 |  |  |
| O=C1NC(=O)C(Cc2ccc(OCc3nc4cccnc4n3-c3ccccc3)cc2)S1 (stereo not drawn) [Example 27] |  | 91.8 |  | 1.97 |  |  |
